Measurements reported in US12239686B2, “Immune checkpoint inhibitor combinations” (LYTIX BIOPHARMA AS, priority 2014, dated 2025).
Non-standard residues stand in square brackets, D forms with d. Residues, ends and D or L forms follow the SMILES beside them. Dip = N[C@H](C(=O)O)C(c1ccccc1)c1ccccc1

Tests used:
[1] = system: EMT-6 murine mammary carcinoma; test: EMT-6 mammary carcinoma model, two-flank tumours; assay type: in vivo, mice
Protocol: The anti-PD-L1 antibody had the following characteristics: ref: BE0101, Bioxcell; clone 10F.9G2; reactivity: mouse; isotype: Rat IgG2b. LTX-315 was prepared at a dose of 0.5 mg/50 μL in 0.9% sodium chloride solution. Anti-PD-L1 antibody was prepared at a concentration in phosphate-buffered saline and was administered at a dose of 10 mg/kg. LTX-315 was injected into the tumour grafted on the right flank of the mice, anti-PD-L1 antibody was injected into the peritoneal cavity of the mice.
Induction of MET-6 tumours in mice: A first tumor was induced by subcutaneous injection of 1×10^6 of EMT-6 cells in 200 μL of RPMI 1640 into the right flank of Balb/C female mice. The day of tumor cell injection in the right flank was considered as DO. A second tumor was induced by subcutaneous injection of 1×10^5 of EMT-6 cells in 200 μL of RPMI 1640 into the left flank of Balb/C female mice. The day of tumor cell injection in the left flank was considered as D3.
Treatment schedule: Mice were randomized according to their body weight on D3 into four groups each of 5 mice (group 1) or 10 mice (groups 3, 5 and 7) using Vivo Manager® software (Biosystemes, Couternon, France). A statistical test (analysis of variance) was performed to test for homogeneity between groups. […]
Mouse monitoring: All study data, including mouse body weight measurements, tumour volume, clinical and mortality records, and treatment were scheduled and recorded on Vivo Manager® database (Biosystemes, Dijon, France). The viability and behaviour was recorded every day. Body weights were measured thrice a week. The length and width of the tumor was measured three times a week with calipers and the volume of the tumour was estimated by the following formula: tumour volume=(width2×length)/2 (SIMPSON-HERREN L. et al. Cancer Chemotherapy Rep., 54: 143, 1970).

[2] = system: A375 cells; test: Release of ATP, luciferase assay of supernatant; assay type: cell-based, human; details: concentration-dependent
Protocol: The supernatant of LTX-315-treated A375 cells was analyzed using an Enliten ATP luciferase assay kit (Promega, USA). Cells were then seeded as with an ROS assay, and treated with LTX-315 in different incubation times, from 1 to 15 minutes with two parallels, which was then conducted three times. Negative controls were untreated A375 cells exposed to serum-free media alone. Samples were diluted at 1:50 and 1:100, and analyzed with a Luminoscan RT luminometer according to the manufacturer's protocol.

[3] = system: murine A20 B cell lymphoma cells; test: Re-challenge with A20 cells in mice with complete tumour regression; assay type: in vivo
Protocol: (§1) Methods: Female Balb-c mice (n=4), previously treated with LTX-315, 1 mg) or (n=9); previously treated with LTX-315 0.5 or 1 mg) were re-inoculated (s.c. in the abdominal area) with either murine A20 B cell lymphoma cells or CT26WT colon carcinoma cells (5 million) respectively 6 weeks following initial treatment with LTX-315. Tumour growth was monitored for up to 36 days following re-inoculation.

[4] = system: CT26WT colon carcinoma cells; test: Re-challenge with CT26WT cells in mice with complete tumour regression; assay type: in vivo
Protocol: as §1

[5] = system: murine A20 B-cell lymphoma; test: Murine A20 B-cell lymphoma tumours in mice, intratumoural treatment; assay type: in vivo; details: for Mean tumour size (mm^2) at day 1: prior to start of treatment
Protocol: The administration took place by intratumoural injection of LTX-315 dissolved in sterile saline.
The mice were divided into four groups (see Table 8 below for details). The intratumoural treatment was initiated when the tumours had reached the desired size of approximately 5 mm in diameter (minimum of 20 mm^2).
Three dose levels of LTX-315, 1 mg (Group 1), 0.5 mg (Group 2) and 0.25 mg (Group 3) per injection, were investigated. The volume was 50 μl for all injections. LTX-315 was dissolved in sterile 0.9% NaCl water solution. This vehicle was used as control (Group 4). All four groups received three injections.
A calliper was used for tumour size measurements and weighing and physical examination were used as health control.

[6] = system: human red blood cells; test: Haemolytic activity in vitro; assay type: cell-based; details: 1 h, 37° C.
Protocol: Freshly collected human blood was centrifuged at 1500 rpm for 10 minutes in order to isolate the red blood cells. The red blood cells (RBC) were washed three times with PBS [35 mM phosphate buffer with 150 mM NaCl, pH 7.4] by centrifugation at 1500 rpm for 10 minutes, and adjusted to 10% haematocrit with PBS. LTX-315 solutions were added to give a final concentration range of the peptide from 1200 μg/ml to 1 μg/ml and an RBC concentration of 1%. The resulting suspension was incubated with agitation for one hour at 37° C. After incubation the suspension was centrifuged at 4000 rpm for 5 minutes, and the released haemoglobin were monitored by measuring the absorbance of the supernatant at 405 nm. PBS was used as negative control and assumed to cause no haemolysis. 0.1% Triton was used as positive control and assumed to cause complete haemolysis.
Released haemoglobin was monitored by measuring the absorbance of the supernatant at 405 nm, and percent haemolysis was calculated by the equation: […]
LTX-315 concentration corresponding to 50% haemolysis (ECs) was determined from a dose-response curve.

[7] = Group 1, 1 mg intratumoural days 1,2,3
[8] = Group 2, 0.5 mg intratumoural days 1,2,3
[9] = Group 3, 0.25 mg intratumoural days 1,2,3

NCCCC[C@H](NC(=O)[C@@H](NC(=O)[C@H](Cc1c[nH]c2ccccc12)NC(=O)[C@H](CCCCN)NC(=O)[C@H](CCCCN)NC(=O)[C@H](Cc1c[nH]c2ccccc12)NC(=O)[C@H](Cc1c[nH]c2ccccc12)NC(=O)[C@H](CCCCN)NC(=O)[C@@H](N)CCCCN)C(c1ccccc1)c1ccccc1)C(N)=O [LTX-315, K-K-W-W-K-K-W-Dip-K-NH2] (H-KKWWKKW[Dip]K-NH2)
test mice surviving for more than 50 days after tumour induction ([1]; LTX-315 0.5 mg i.t. Q1Dx3, anti-PD-L1 10 mg/kg IP Q2Dx6): 30%
Proportion of Mice with total tumour regression, Right flank ([1]; treated flank, day 52 or when sacrificed): 30%
Proportion of Mice with total tumour regression, Left flank ([1]; untreated flank, day 52 or when sacrificed): 10%
extracellular ATP release [2]: ATP was detected in the supernatant as early as after 5 minutes of treatment
tumour growth after re-inoculation compared with control animals ([3]; 4 mice previously treated with LTX-315 1 mg, re-inoculated 6 weeks later, P<0.006): Significant inhibition
mice with complete tumour regression after re-inoculation ([3]; of 4 re-inoculated mice): 3 mice
animals with relapse after re-inoculation ([3]; of 4 re-inoculated mice, 3 weeks later): 1 animal
tumour growth after re-inoculation in comparison with control animals ([4]; 9 mice previously treated with LTX-315 0.5 or 1 mg, P<0.01): inhibition (P<0.01) of tumour growth was observed
animals with complete regression after re-inoculation ([4]; of 9 re-inoculated mice): 2 animals
mice in which inhibition was observed after re-inoculation ([4]; of 9 re-inoculated mice): 7 mice
Mean tumour size (mm^2) on day 4 [5, 7]: 0 mm^2
Mean tumour size (mm^2) on day 9 [5, 7]: 3.70 ± 2.40 mm^2
Mean tumour size (mm^2) on day 14 [5, 7]: 12.43 ± 7.87 mm^2
Mean tumour size (mm^2) at day 1 [5, 7]: 25.82 ± 0.80 mm^2
Relapse of Tumour ([5]; Group 1, 1 mg x3): 25%
Free of Tumour at end of Follow-Up ([5]; Group 1, 1 mg x3, n=7): 42.8%
Tumour Response: complete response ([5]; Group 1, 1 mg x3, n=7): 57.2%
Tumour Response: partial response ([5]; Group 1, 1 mg x3, n=7): 42.8%
treated mice with a complete tumour response ([5]; Group 1, optimal dose 1 mg x3): 3 of 7
Mean tumour size (mm^2) on day 4 [5, 8]: 0 mm^2
Mean tumour size (mm^2) on day 9 [5, 8]: 11.41 ± 4.69 mm^2
Mean tumour size (mm^2) on day 14 [5, 8]: 61.08 ± 23.84 mm^2
Mean tumour size (mm^2) at day 1 [5, 8]: 22.03 ± 0.63 mm^2
Relapse of Tumour ([5]; Group 2, 0.5 mg x3): 0%
Free of Tumour at end of Follow-Up ([5]; Group 2, 0.5 mg x3, n=7): 28.57%
Tumour Response: complete response ([5]; Group 2, 0.5 mg x3, n=7): 28.57%
Mean tumour size (mm^2) on day 4 [5, 9]: 20.60 ± 5.71 mm^2
Mean tumour size (mm^2) on day 9 [5, 9]: 68.49 ± 12.74 mm^2
Mean tumour size (mm^2) on day 14 [5, 9]: 69.42 ± 17.70 mm^2
Mean tumour size (mm^2) at day 1 [5, 9]: 21.25 ± 0.64 mm^2
Tumour Response: complete response ([5]; Group 3, 0.25 mg x3, n=9): 0%
adverse events or toxic effects ([5]; all LTX-315 groups, apart from wound formation): no other adverse events or toxic effects were observed
Mean cell death (%) ([6]; LTX-315 1 μg/ml): 0.0%
Mean cell death (%) ([6]; LTX-315 10 μg/ml): 0.6%
Mean cell death (%) ([6]; LTX-315 50 μg/ml): 1.6%
Mean cell death (%) ([6]; LTX-315 100 μg/ml): 3.6%
